What all share (assay): NCI-60 cell line screen, 48 h
For assay [1], the system named is SK-MEL-5.
Assay [2] has as its system NCI-H460.
Assay [3] concerns OVCAR-4.
Assay [4] relates to OVCAR-8.
Assay [5] deals with CAKI-1.
The test system of assay [6] is HL-60.
The subject of assay [7] is KM12.
Assay [8] concerns RXF 393.
For assay [9], the system named is CCRF-CEM.
The test system of assay [10] is OVCAR-5.
Assay [11] has as its system HCT-116.
The test system of assay [12] is SK-MEL-28.
Assay [13] deals with SW-620.
The test system of assay [14] is RPMI-8226.
The test system of assay [15] is SF-268.
Assay [16] relates to K562.
In assay [17] the test system is NCI-H23.
For assay [18], the system named is EKVX.

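Cells were grown in 96-well plates and exposed to each compound for 48 hours at five concentrations; endpoints were interpolated linearly between bracketing concentrations, or set to the highest concentration if not reached. GI50: concentration for 50% inhibition of growth.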 Calls of active or inactive are those of the source. Rule as the data show it: active = GI50 up to about 1.1 µM and inactive = higher.

With `FC(F)(F)C1(Cl)C(Cl)(c2ccccc2)C1(Cl)c1ccccc1` (stereo not given), the GI50 in assay [1] is 14 µM (inactive); in assay [2], 15.8 µM (inactive); in assay [3], 14.2 µM (inactive); in assay [4], 18 µM (inactive); in [5], 13 µM (inactive); in assay [6], 17.7 µM (inactive). In addition, the GI50 is 15.6 µM (inactive) in assay [7]; 13.9 µM (inactive) in assay [8]; 14.9 µM (inactive) in assay [9]; 16.4 µM (inactive) in assay [10]; 11.9 µM (inactive) in [11]; 14.9 µM (inactive) in assay [12]. Further, the GI50 in assay [13] is 15.7 µM (inactive); in assay [14], 27.7 µM (inactive); in assay [15], 17.3 µM (inactive); in assay [16] it was 33.7 µM (inactive); in assay [17], 14.3 µM (inactive); in [18] it was 16.3 µM (inactive).

Regarding `Cc1cccc(C)c1NC(=O)CCc1nnc2s/c(=C\c3ccc(N(C)C)cc3)c(=O)n12`, the GI50 in assay [1] was > 100 µM (inactive); in assay [2], > 100 µM (inactive); in assay [3] it was > 100 µM (inactive); in [4], > 100 µM (inactive); in assay [5], > 100 µM (inactive); in [6] it was 68.1 µM (inactive). For the same compound, the GI50 was > 100 µM (inactive) in [7]; 69.2 µM (inactive) in assay [8]; 38.6 µM (inactive) in assay [9]; > 100 µM (inactive) in assay [10]; > 100 µM (inactive) in [11]; > 100 µM (inactive) in [12]. Moreover, the GI50 in [13] is > 100 µM (inactive); in [14], 66.2 µM (inactive); in assay [15] it was 59.2 µM (inactive); in assay [16] it was 53.3 µM (inactive); in [17], > 100 µM (inactive).

For the compound `CCC(CC)C(=O)OC[n+]1ccc(-c2c(COC(=O)NC(C)C)c(COC(=O)NC(C)C)c3n2CCC3)cc1`, the GI50 in [1], in assay [3], in assay [4], in assay [5], in [6] and in assay [8] was > 100 µM (inactive) throughout. The GI50 in assay [9], in assay [13], in [14], in assay [16], in assay [17] and in assay [18] was > 100 µM (inactive) throughout.

For `O=C(Nc1ccc(/N=N/c2ccccc2)cc1)Sc1ccccc1C(=O)O`, the GI50 in [2] is > 100 µM (inactive); in assay [3] it was > 100 µM (inactive); in assay [4] it was > 100 µM (inactive); in assay [5] it was > 100 µM (inactive); in assay [6] it was 1.7 µM (inactive); in [7], > 100 µM (inactive). For the same compound, the GI50 in assay [8] was 71.3 µM (inactive); in assay [9], > 10 µM (inactive); in [10], > 100 µM (inactive); in assay [11], 57.1 µM (inactive); in assay [12], > 100 µM (inactive); in [13] it was > 100 µM (inactive). For the same compound, the GI50 in assay [14], in [15], in assay [16], in [17] and in assay [18] was > 100 µM (inactive) throughout.

`CCCCS(=O)(=O)Nc1ccc(Nc2c3ccccc3nc3ccccc23)c(OC)c1`: the GI50 was 5.2 µM (inactive) in assay [1]; 0.0863 µM (active) in [2]; 5.6 µM (inactive) in [3]; 2 µM (inactive) in assay [4]; 0.574 µM (active) in assay [5]; 0.183 µM (active) in [6]. Besides, the GI50 in assay [7] is 3.45 µM (inactive); in assay [8] it was 4.39 µM (inactive); in assay [9], 0.338 µM (active); in assay [10] it was 13.7 µM (inactive); in assay [11], 1.73 µM (inactive); in assay [12] it was 5.74 µM (inactive). The GI50 in assay [13] is 0.675 µM (active); in [14] it was 1.74 µM (inactive); in assay [15], 2.25 µM (inactive); in [16] it was 2.51 µM (inactive); in assay [17], 1.11 µM (active); in assay [18], 1.91 µM (inactive).

Consider `[O-][S+]1c2ccccc2N=C(c2ccc(Cl)cc2)CC1c1cccs1` (stereo not given), for which the GI50 was 19 µM (inactive) in assay [1]; 36.8 µM (inactive) in assay [2]; 11 µM (inactive) in assay [3]; 17.8 µM (inactive) in [4]; 21.4 µM (inactive) in assay [5]; 14.2 µM (inactive) in assay [6]. Also, the GI50 in assay [7] was 14.7 µM (inactive); in assay [8] it was 14.4 µM (inactive); in assay [9] it was 17.3 µM (inactive); in assay [10], 16.7 µM (inactive); in assay [11], 10.9 µM (inactive); in assay [12] it was 19.3 µM (inactive). Also, the GI50 in assay [13] was 14.4 µM (inactive); in assay [14], 17 µM (inactive); in assay [15], 29.2 µM (inactive); in assay [16], 9.25 µM (inactive); in assay [17] it was 23.8 µM (inactive); in assay [18], 35.4 µM (inactive).

Turning to `Brc1nc2c3ccccc3ncn2c1Br`, the GI50 in [1] was 18.3 µM (inactive); in [2], 34.2 µM (inactive); in assay [3] it was 16 µM (inactive); in assay [4] it was 42.7 µM (inactive); in [5], 28.3 µM (inactive); in assay [6], 22.5 µM (inactive). For the same compound, the GI50 in assay [7] is 32.1 µM (inactive); in assay [8], 35.6 µM (inactive); in assay [9], 25.5 µM (inactive); in assay [10], 64.9 µM (inactive); in assay [11] it was 37.3 µM (inactive); in assay [12], 82 µM (inactive). Moreover, the GI50 was 36.6 µM (inactive) in assay [13]; 23.4 µM (inactive) in [14]; 82.6 µM (inactive) in [15]; 31.3 µM (inactive) in [16]; 20.7 µM (inactive) in assay [17]; 21.1 µM (inactive) in assay [18].

In the case of `O=C1OC(c2cccc(C(F)(F)F)c2)(c2cccc(C(F)(F)F)c2)c2ccc3ccccc3c21`, the GI50 is 4.59 µM (inactive) in [1]; > 10 µM (inactive) in assay [2]; > 10 µM (inactive) in assay [3]; > 10 µM (inactive) in [4]; 26.7 µM (inactive) in assay [5]; 3.56 µM (inactive) in assay [6]. The GI50 was 79.1 µM (inactive) in assay [7]; 5.65 µM (inactive) in assay [8]; 7.85 µM (inactive) in assay [9]; > 10 µM (inactive) in assay [10]; 8.45 µM (inactive) in [11]; > 10 µM (inactive) in assay [12]. For the same compound, the GI50 in assay [13] is > 10 µM (inactive); in [14], 4.24 µM (inactive); in assay [15], 9.59 µM (inactive); in [16] it was 8.04 µM (inactive); in [17] it was 7.85 µM (inactive); in assay [18], > 10 µM (inactive).

For the compound `Cc1cc(O)c2c(c1)C(=O)c1c(c(O)cc(O)c1-c1c(O)cc(O)c3c1C(=O)c1cc(C)cc(O)c1C3=O)C2=O` [SKYRIN], the GI50 is 9.44 µM (inactive) in assay [1]; 9.08 µM (inactive) in assay [2]; 10.9 µM (inactive) in assay [3]; 8.26 µM (inactive) in assay [4]; 16.8 µM (inactive) in assay [5]; 7.11 µM (inactive) in assay [6]. For the same compound, the GI50 is 9.08 µM (inactive) in assay [7]; 19.3 µM (inactive) in assay [8]; 7.6 µM (inactive) in assay [9]; 38 µM (inactive) in assay [10]; 8.99 µM (inactive) in assay [11]; 11.7 µM (inactive) in [12]. Further, the GI50 was 14.4 µM (inactive) in assay [13]; 5.93 µM (inactive) in [14]; 13.9 µM (inactive) in assay [15]; 7.87 µM (inactive) in assay [16]; 13.1 µM (inactive) in [17]; 11.9 µM (inactive) in [18].

Turning to `COc1ccccc1CC(C)N` (stereo not given), the GI50 in assay [1], in [2], in assay [3], in assay [4], in [5] and in assay [6] was > 100 µM (inactive) throughout. Also, the GI50 in [7], in assay [8], in assay [9], in assay [10], in [11] and in assay [12] was > 100 µM (inactive) in each case. For the same compound, the GI50 in assay [13], in assay [14], in [15], in [16], in assay [17] and in [18] was > 100 µM (inactive) each time.

With `CC(C)OP(=O)(OC(C)C)c1nc(-c2ccccc2)n(-c2ccc([N+](=O)[O-])cc2)n1`, the GI50 in [1], in assay [2], in assay [3], in [4], in assay [5] and in assay [6] was > 100 µM (inactive) each time. Also, the GI50 in [7] is > 100 µM (inactive); in assay [8], 0.0111 µM (active); in assay [9], > 100 µM (inactive); in assay [10], > 100 µM (inactive); in assay [11], > 100 µM (inactive); in assay [12] it was > 100 µM (inactive). Also, the GI50 in assay [13] was > 100 µM (inactive); in [14], > 100 µM (inactive); in assay [15] it was > 100 µM (inactive); in assay [16], 85.5 µM (inactive); in assay [17], > 100 µM (inactive); in [18], > 100 µM (inactive).

For the origin of these results see ChEMBL document CHEMBL1201862, “PubChem BioAssay data set” (2004).
